Assay results from PubChem BioAssay AID1259407 (Chemical Carcinogenesis Research Information System (CCRIS), 2018).
The source made the active and inactive calls. The rule behind the calls is not given here.

System: CCRIS mutagenicity, Ames/micronucleus/aberration tests
Test: CCRIS mutagenicity studies

`CCN(N=O)C(N)=O` was tested, and the mutagenic call (End Point: IN VITRO CHROMOSOMAL ABERRATIONS, Test System: CHINESE HAMSTER V79-E CELLS, Metabolic Activation: NONE) was “inactive; negative”, the mutagenic call (End Point: IN VITRO MICRONUCLEUS, Test System: CHL/IU CELLS, Metabolic Activation: NONE) was “active; positive” and the mutagenic call (End Point: IN VIVO MICRONUCLEUS, Test System: BLOOD ERYTHROCYTES, Species: MOUSE, Strain/Sex: CD-1/MALE, Route: ORAL) was “active; positive”. The mutagenic call (Test System: AMES SALMONELLA TYPHIMURIUM, Strain/Indicator: TA98, Metabolic Activation: HAMSTER, LIVER, S-9, AROCLOR 1254 (30%), Method: PREINCUBATION) was “active; positive”, the mutagenic call (Test System: AMES SALMONELLA TYPHIMURIUM, Strain/Indicator: TA98, Metabolic Activation: NONE, Method: PREINCUBATION) was “active; positive” and the mutagenic call (Test System: AMES SALMONELLA TYPHIMURIUM, Strain/Indicator: TA98, Metabolic Activation: RAT, LIVER, S-9, AROCLOR 1254 (30%), Method: PREINCUBATION) was “active; positive”. The mutagenic call (Test System: AMES SALMONELLA TYPHIMURIUM, Strain/Indicator: TA100, Metabolic Activation: HAMSTER, LIVER, S-9, AROCLOR 1254 (30%), Method: PREINCUBATION) was “active; positive”, the mutagenic call (Test System: AMES SALMONELLA TYPHIMURIUM, Strain/Indicator: TA100, Metabolic Activation: NONE, Method: PREINCUBATION) was “active; positive” and the mutagenic call (Test System: AMES SALMONELLA TYPHIMURIUM, Strain/Indicator: TA100, Metabolic Activation: NONE, Method: STANDARD PLATE) was “active; positive”. For the same compound, the mutagenic call (Test System: AMES SALMONELLA TYPHIMURIUM, Strain/Indicator: TA100, Metabolic Activation: RAT, LIVER, S-9, AROCLOR 1254 (30%), Method: PREINCUBATION) was “active; positive”, the mutagenic call (Test System: AMES SALMONELLA TYPHIMURIUM, Strain/Indicator: TA100, Metabolic Activation: RAT, LIVER, S-9, AROCLOR 1254, Method: PREINCUBATION) was “active; positive” and the mutagenic call (Test System: AMES SALMONELLA TYPHIMURIUM, Strain/Indicator: TA102, Metabolic Activation: RAT, LIVER, S-9, AROCLOR 1254, Method: PREINCUBATION) was “active; positive”. For the same compound, the mutagenic call (Test System: AMES SALMONELLA TYPHIMURIUM, Strain/Indicator: TA104, Metabolic Activation: RAT, LIVER, S-9, AROCLOR 1254, Method: PREINCUBATION) was “active; positive”, the mutagenic call (Test System: AMES SALMONELLA TYPHIMURIUM, Strain/Indicator: TA1535, Metabolic Activation: NONE) was “active; positive” and the mutagenic call (Test System: AMES SALMONELLA TYPHIMURIUM, Strain/Indicator: TA1535, Metabolic Activation: NONE, Method: PREINCUBATION) was “active; positive”. For the same compound, the mutagenic call (Test System: AMES SALMONELLA TYPHIMURIUM, Strain/Indicator: TA1535, Metabolic Activation: RAT, LIVER, S-9, AROCLOR 1254, Method: STANDARD PLATE) was “active; positive”, the mutagenic call (Test System: AMES SALMONELLA TYPHIMURIUM, Strain/Indicator: YG7104, Metabolic Activation: NONE, Method: PREINCUBATION) was “active; positive” and the mutagenic call (Test System: AMES SALMONELLA TYPHIMURIUM, Strain/Indicator: YG7108, Metabolic Activation: NONE, Method: PREINCUBATION) was “active; positive”. The mutagenic call (Test System: AMES SALMONELLA TYPHIMURIUM, Strain/Indicator: YG7112, Metabolic Activation: NONE, Method: PREINCUBATION) was “active; positive”, the mutagenic call (Test System: AMES SALMONELLA TYPHIMURIUM, Strain/Indicator: YG7113, Metabolic Activation: NONE, Method: PREINCUBATION) was “active; positive” and the mutagenic call (Test System: CHINESE HAMSTER OVARY, Strain/Indicator: CHO-K1-BH4 (HGPRT), Metabolic Activation: NONE, Method: STANDARD PLATE) was “active; positive”. For the same compound, the mutagenic call (Test System: CHINESE HAMSTER V-79, Strain/Indicator: V-79/6-THIOGUANINE, Metabolic Activation: NONE, Method: FLASK ASSAY) was “active; positive”, the mutagenic call (Test System: E. COLI B, Strain/Indicator: H/R30R, Metabolic Activation: NONE) was “active; positive” and the mutagenic call (Test System: E. COLI B, Strain/Indicator: HS30R, Metabolic Activation: NONE) was “active; positive”. The mutagenic call (Test System: E. COLI, Strain/Indicator: WP2, Metabolic Activation: NONE, Method: STANDARD PLATE) was “active; positive”, the mutagenic call (Test System: E. COLI, Strain/Indicator: WP2 UVRA, Metabolic Activation: NONE, Method: STANDARD PLATE) was “active; positive” and the mutagenic call (Test System: LacZ plasmid mouse (C57BL/6J transgenic), Strain/Indicator: LacZ Mutant frequency, Method: Bone marrow and liver harvested 35 days after last dose) was “active; positive”. The mutagenic call (Test System: LacZ transgenic mouse (Muta Mouse), Strain/Indicator: LacZ Mutant frequency, Method: Bone marrow and liver harvested 35 days after last dose) was “active; positive”, the mutagenic call (Test System: MOUSE LYMPHOMA, Strain/Indicator: L5178Y(TK+/TK-), Metabolic Activation: NONE, Method: MICROWELL) was “active; positive” and the mutagenic call (Test System: UDS HUMAN FIBROBLASTS, Strain/Indicator: THY INCORP (NON-S-PHASE), Metabolic Activation: NONE, Method: LIQUID SCINTILLATION COUNTING) was “active; positive”. The mutagenic call (Test System: UDS HUMAN TRACHEAL EPITHELIAL CELLS, Strain/Indicator: THY INCORP, Metabolic Activation: NONE, Method: AUTORADIOGRAPHY) was “active; positive” and the mutagenic call (Test System: UDS MOUSE SPERMATOGONIAL AND POSTSPERMATOGONIAL CELLS IN VIVO, Strain/Indicator: THYMIDINE INCORPORATION, Metabolic Activation: NONE, Method: AUTORADIOGRAPHY) was “active; positive”.
